Read-outs that look alike come from different tables or passages of the source.
Target: T1, CGRP receptor complex (Homo sapiens, UniProt O60894+Q16602)
T1 construct: host or cells: SK-N-MC
Assay: determination of cell functional antagonism - cAMP determination
Format: cell-based
Experimental: 1.Experimental principle A CGRP receptor complex was coupled with Gs in G protein, the combination of CGRP and CGRP receptor complex led to Gs activation, and cAMP (3',5'-cyclic adenosine monophosphate) was produced. 2.Experimental purpose The ability of the compound of the present invention to inhibit CGRP-stimulated cAMP formation in SK-N-MC cells was determined. 3.Experimental materials 3.1Experimental cell line: SK-N-MC (neuroepithelioma cells) from National Science and Technology Infrastructure - Biomedical Materials and Cell Resources. 3.2Reagents and consumables
4.Experimental steps • 4.1Cell preparation: The SK-N-MC cells were resuscitated and cultured in advance, and a cell confluence degree should be 70%-80% before use. • 4.2A sample dilution, a tested compound and α-CGRP (human) were prepared. • 4.3Cell seeding and drug effect: The SK-N-MC cells were digested, centrifuged, then resuspended with the sample dilution, and inoculated into a 384-well plate. Each well was added with the α-CGRP (human) and the tested compound respectively, and blown and mixed evenly. The well plate was adhered with a sealing film, and placed on an enzyme-labeled incubator to incubate at 25°C. • 4.4cAMP determination: carried out according to LANCE Ultra cAMP Kit specification Eu-cAMP tracer and ULight-anti-cAMP working solutions were prepared in the dark, respectively added into the well plate, and blown and mixed evenly.

[1] = inhibition of CGRP-stimulated cAMP formation in SK-N-MC cells, read-out: IC50
[2] = inhibition of CGRP-stimulated cAMP formation in SK-N-MC cells

T1 sequence (Q16602 23-461): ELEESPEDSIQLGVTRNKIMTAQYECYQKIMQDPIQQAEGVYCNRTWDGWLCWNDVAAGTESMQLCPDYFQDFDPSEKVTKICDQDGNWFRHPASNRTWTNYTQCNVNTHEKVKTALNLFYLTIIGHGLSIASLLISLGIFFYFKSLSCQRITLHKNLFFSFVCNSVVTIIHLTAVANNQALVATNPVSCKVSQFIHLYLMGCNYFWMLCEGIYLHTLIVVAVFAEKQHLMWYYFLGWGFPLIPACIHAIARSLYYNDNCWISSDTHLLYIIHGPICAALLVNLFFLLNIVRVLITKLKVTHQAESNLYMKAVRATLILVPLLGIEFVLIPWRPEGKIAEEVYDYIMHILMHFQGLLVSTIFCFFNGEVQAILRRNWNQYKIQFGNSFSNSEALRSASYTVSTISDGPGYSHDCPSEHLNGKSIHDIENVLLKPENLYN
T1 sequence (O60894 27-148): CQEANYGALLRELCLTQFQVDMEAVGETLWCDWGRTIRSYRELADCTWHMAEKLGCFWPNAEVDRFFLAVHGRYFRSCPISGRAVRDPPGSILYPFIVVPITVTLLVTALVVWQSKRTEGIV

Cc1cc(C[C@@H](NC(=O)N2CCC(c3cc4c([nH]c3=O)SCCC4)CC2)C(=O)N2CCC(C)(N3CCCCC3)CC2)cc2cn[nH]c12 [Example 24, (R)-N-(3-(7-methyl-1H-indazole-5-yl)-1-(4'-methyl-[1,4'-bipiperidine]-1'-yl)-1-oxopropan-2-yl)-4-(7-oxo-3,4,7,8-tetrahydro-2H-thiopyrano[2,3-b]pyridine-6-yl)piperidine-1-formamide]
IC50 [1]: 1.02 nM

Cc1cc(C[C@@H](NC(=O)N2CCC(c3cc4c([nH]c3=O)CCC4)CC2)C(=O)N2CCN(C3CCN(C)CC3)CC2)cc2cn[nH]c12 [Example 51, (R)-N-(3-(7-methyl-1H-indazole-5-yl)-1-(4-(1-methylpiperidine-4-yl)piperazine-1-yl)-1-oxopropan-2-yl)-4-(2-oxo-2,5,6,7-tetrahydro-1H-cyclopentadieno[b]pyridine-3-yl)piperidine-1-f ormamide]
IC50: 1.94 nM

Cc1cc(C[C@@H](NC(=O)N2CCC(c3cc4c([nH]c3=O)SCC43CC3)CC2)C(=O)N2CCN(C3CCN(C)CC3)CC2)cc2cn[nH]c12 [Example 33, (R)-N-(3-(7-methyl-1H-indazole-5-yl)-1-(4-(1-methylpiperidine-4-yl)piperazine-1-yl)-1-oxopropan-2-yl)-4-(6'-oxo-6',7'-dihydro-2'H-spiro[cyclopropane-1,3'-thieno][2,3-b]pyridine-5'-yl)piperidine-1-formamide]
IC50: 0.37 nM

Cc1cc(C[C@@H](NC(=O)N2CCC(c3cc4c([nH]c3=O)SCC4)CC2)C(=O)N2CCN(C3CCNCC3)CC2)cc2cn[nH]c12 [Example 50, (R)-N-(3-(7-methyl-1H-indazole-5-yl)-1-oxo-1-(4-(piperidine-4-yl)piperazine-1-yl)propan-2-yl)-4-(6-oxo-2,3,6,7-tetrahydrothieno[2,3-b]pyridine-5-yl)piperidine-1-formamide]
IC50 [1]: 0.07 nM

Cc1cc(C[C@@H](NC(=S)N2CCC(c3cc4c([nH]c3=O)SCC4)CC2)C(=O)N2CCN(C3CCN(C)CC3)CC2)cc2cn[nH]c12 [Example 16]
IC50: 0.71 nM

Cc1cc(C[C@@H](NC(=O)N2CCC(c3cc4c([nH]c3=O)SCC4)CC2)C(=O)N2CCC(C)(N3CCCCC3)CC2)cc2cn[nH]c12 [Example 22, (R)-N-(3-(7-methyl-1H-indazole-5-yl)-1-(4'-methyl-[1,4'-bipiperidine]-1'-yl)-1-oxopropan-2-yl)-4-(6-oxo-2,3,6,7-tetrahydrothieno[2,3-b]pyridine-6-yl)piperidine-1-formamide]
IC50: 0.81 nM

Cc1cc(C[C@@H](NC(=O)N2CCC(c3cc4c([nH]c3=O)CSC4)CC2)C(=O)N2CCN(C3CCN(C)CC3)CC2)cc2cn[nH]c12 [Example 11, (R)-N-(3-(7-methyl-1H-indazole-5-yl)-1-(4-(1-methylpiperidine-4-yl)piperazine-1-yl)-1-oxopropan-2-yl)-4-(2-oxo-1,2,5,7-tetrahydrothieno[3,4-b]pyridine-3-yl)piperidine-1-formamide]
IC50 [1]: 7.83 nM

Cc1cc(C[C@@H](NC(=O)N2CCC(c3cc4c([nH]c3=O)SCC4)CC2)C(=O)N2CC3CC2CC3N2CCCCC2)cc2cn[nH]c12 (some centres unmarked) [Example 36]
IC50: 4.61 nM

Cc1cc(C[C@@H](NC(=S)N2CCC(c3cc4c([nH]c3=O)SCCC4)CC2)C(=O)N2CCN(C3CCN(C)CC3)CC2)cc2cn[nH]c12 [Example 23]
IC50: 1.12 nM

Cc1cc(C[C@@H](NC(=O)N2CCC(c3cc4c([nH]c3=O)SCC4)CC2)C(=O)N2CCC(N3CCCCC3)CC2)cc2cn[nH]c12 [Example 20, (R)-N-(1-([1,4'-bipiperidine]-1'-yl)-3-(7-methyl-1H-indazole-5-yl)-1-oxopropan-2-yl)-4-(6-oxo-2,3,6,7-tetrahydrothieno[2,3-b]pyridine-5-yl)piperidine-1-formamide]
IC50 [1]: 0.37 nM

Cc1cc(CC(OC(=O)N2CCC(c3cc4c([nH]c3=O)SCC4)CC2)C(=O)N2CCN(C3CCN(C)CC3)CC2)cc2cn[nH]c12 (centres unmarked) [Example 42, 3-(7-methyl-1H-indazole-5-yl)-1-(4-(1-methylpiperidine-4-yl)piperazine-1-yl)-1-oxopropan-2-yl-4-(6-oxo-2,3,6,7-tetrahydrothieno[2,3-b]pyridine-5-yl)piperidine-1-formate]
IC50 [1]: 0.27 nM

Cc1cc(C[C@@H](NC(=O)N2CCC(c3cc4c([nH]c3=O)CSCC4)CC2)C(=O)N2CCN(C3CCN(C)CC3)CC2)cc2cn[nH]c12 [Example 13, (R)-N-(3-(7-methyl-1H-indazole-5-yl)-1-(4-(1-methylpiperidine-4-yl)piperazine-1-yl)-1-oxopropan-2-yl)-4-(2-oxo-2,5,6,8-tetrahydro-1H-thiopyrano[3,4-b]pyridine-3-yl)piperidine-1-for mamide]
IC50 [2]: 1.44 nM

Cc1cc(C[C@@H](NC(=O)N2CCC(c3cc4c([nH]c3=O)SCC3(CC3)C4)CC2)C(=O)N2CCN(C3CCN(C)CC3)CC2)cc2cn[nH]c12 [Example 46, (R)-N-(3-(7-methyl-1H-indazole-5-yl)-1-(4-(1-methylpiperidine-4-yl)piperazine-1-yl)-1-oxopropan-2-yl)-4-(7'-oxo-7',8'-dihydro-2'H,4'H-spiro[cyclopropane-1,3'-thiopyrano[2,3-b]pyridine]-6'-yl)piperidine-1-formamide]
IC50 [1]: 0.15 nM

Cc1cc(C[C@@H](NC(=O)N2CCC(c3cc4c([nH]c3=O)SCCC4)CC2)C(=O)N2CC3CC2CC3N2CCCCC2)cc2cn[nH]c12 (stereo partly drawn) [Example 40, N-((2R)-3-(7-methyl-1H-indazole-5-yl)-1-oxo-1-(5-(piperidine-1-yl)-2-azabicyclo[2.2.1]hept-2-yl)propan-2-yl)-4-(7-oxo-3,4,7,8-tetrahydro-2H-thiopyrano[2,3-b]pyridine-6-yl)piperidine-1-formamide]
IC50 [1]: 3.47 nM

Cc1cc(C[C@@H](NC(=O)N2CCC(c3cc4c([nH]c3=O)CCC4(C)C)CC2)C(=O)N2CCN(C3CCN(C)CC3)CC2)cc2cn[nH]c12 [Example 7]
IC50: 6.02 nM

Cc1cc(C[C@@H](NC(=O)N2CCC(c3cc4c([nH]c3=O)[S+]([O-])CCC4)CC2)C(=O)N2CCN(C3CCN(C)CC3)CC2)cc2cn[nH]c12 (stereo partly drawn) [Example 32, N-((R)-3-(7-methyl-1H-indazole-5-yl)-1-(4-(1-methylpiperidine-4-yl)piperazine-1-yl)-1-oxopropan-2-yl)-4-(1-oxidation-7-oxo-3,4,7,8-tetrahydro-2H-thiopyrano[2,3-b]pyridine-6-yl)pipe ridine-1-formamide]
IC50: 0.29 nM

Cc1cc(C[C@@H](NC(=O)N2CCC(c3cc4c([nH]c3=O)CCS4)CC2)C(=O)N2CCN(C3CCN(C)CC3)CC2)cc2cn[nH]c12 [Example 17, (R)-N-(3-(7-methyl-1H-indazole-5-yl)-1-(4-(1-methylpiperidine-4-yl)piperazine-1-yl)-1-oxopropan-2-yl)-4-(5-oxo-2,3,4,5-tetrahydrothieno[3,2-b]pyridine-6-yl)piperidine-1-formamide]
IC50 [1]: 15.4 nM

Cc1cc(C[C@@H](NC(=O)N2CCC(c3cc4c([nH]c3=O)SCC4(C)C)CC2)C(=O)N2CCN(C3CCN(C)CC3)CC2)cc2cn[nH]c12 [Example 2, (R)-4-(3,3-dimethyl-6-oxo-2,3,6,7-tetrahydrothieno[2,3-b]pyridine-5-yl)-N-(3-(7-methyl-1H-indazole-5-yl)-1-(4-(1-methylpiperidine-4-yl)piperazine-1-yl)-1-oxopropan-2-yl)piperidine-1-formamide]
IC50 [1]: 0.65 nM | IC50 values / inhibitory activities (in words) (inhibition of CGRP-stimulated cAMP formation, statement of the conclusion): pM level

Cc1cc(C[C@@H](NC(=O)N2CCN(c3cc4c([nH]c3=O)SCCC4)CC2)C(=O)N2CCN(C3CCN(C)CC3)CC2)cc2cn[nH]c12 [Example 18, (R)-N-(3-(7-methyl-1H-indazole-5-yl)-1-(4-(1-methylpiperidine-4-yl)piperazine-1-yl)-1-oxopropan-2-yl)-4-(7-oxo-3,4,7,8-tetrahydro-2H-thiopyrano[2,3-b]pyridine-6-yl)piperazine-1-for mamide]
IC50 [2]: 0.95 nM

Cc1cc(C[C@@H](NC(=O)N2CCC(c3cc4c([nH]c3=O)SCCC4)CC2)C(=O)N2C3CCC2CC(N2CCCCC2)C3)cc2cn[nH]c12 (stereo partly drawn) [Example 39, N-((2R)-3-(7-methyl-1H-indazole-5-yl)-1-oxo-1-(3-(piperidine-1-yl)-8-azabicyclo[3.2.1]octane-8-yl)propan-2-yl)-4-(7-oxo-3,4,7,8-tetrahydro-2H-thiopyrano[2,3-b]pyridine-6-yl)piperidine-1-formamide]
IC50 [1]: 0.13 nM

Cc1cc(C[C@@H](NC(=O)N2CCC(c3cc4c([nH]c3=O)CCCC4)CC2)C(=O)N2CCN(C3CCN(C)CC3)CC2)cc2cn[nH]c12 [Example 52, (R)-N-(3-(7-methyl-1H-indazole-5-yl)-1-(4-(1-methylpiperidine-4-yl)piperazine-1-yl)-1-oxopropan-2-yl)-4-(2-oxo-1,2,5,6,7,8-hexahydroquinoline-3-yl)piperidine-1-formamide]
IC50 [1]: 1.04 nM

Cc1cc(C[C@@H](NC(=O)N2CCC(c3cc4c([nH]c3=O)SCCC4)CC2)C(=O)N2CCN(C3CCNCC3)CC2)cc2cn[nH]c12 [Example 49, (R)-N-(3-(7-methyl-1H-indazole-5-yl)-1-oxo-1-(4-(piperidine-4-yl)piperazine-1-yl)propan-2-yl)-4-(7-oxo-3,4,7,8-tetrahydro-2H-thiopyrano[2,3-b]pyridine-6-yl)piperidine-1-formamide]
IC50 [1]: 0.14 nM

Source: patent EP4703362A1 (Chengdu Sibeibo Pharmaceutical Technology Co., Ltd, priority 2023, dated 2024)
